Results from patent US6770799B2, “Expression of recombinant human acetylcholinesterase in transgenic plants” (priority 2000, dated 2004).

Legend:
[1] = molecular target: T1, human AChE derived from erythrocytes (Homo sapiens, UniProt P22303); experiment: Inhibition of AChE from human erythrocytes (Ellman assay); type: biochemical
T1 construct: a commercially available preparation of AChE from human erythrocytes; purchased; host or cells: human erythrocytes

[2] = molecular target: T2, plant derived recombinant AChE (rAChE) (Homo sapiens, UniProt P22303); experiment: Inhibition of plant-derived recombinant AChE (Ellman assay); type: biochemical; details: for inhibition of plant derived rAChE: 1 mM acetylthiocholine
T2 construct: We expressed the engineered AChE-E4 form, encoded by exons 2-4 of the human gene; made in house; host or cells: transgenic tomato (Lycopersicum esculentum cv. Micro-Tom), cleared leaf extracts

[3] = Heat and storage stability of AChE activity in crude leaf extracts; type: physicochemical
Procedure: To evaluate the heat stability of the enzyme, plant extracts were incubated for 30 minutes at the indicated temperatures and then assayed as described above. Stability of the enzymatic activity was determined at 4 degrees C. and at 25 degrees C. by incubating plant extracts at the respective temperatures and assaying samples at the indicated time points.
The plant-derived hAChE in total soluble protein extracts retained 50% of its initial activity after incubation at 42 degrees for at least 30 minutes (FIG. 5A). Crude leaf extracts were incubated at the indicated temperatures for 30 minutes and then subjected to Ellman's AChE assay. […] The activity was very stable at 4 degrees C., with only 20% loss after 24 hours (FIG. 5B). Crude leaf extracts were incubated at 4 degrees C. or at 25 degrees C. for the indicated time periods and then assayed for AChE activity.

[4] = Km determination of plant-derived hAChE (Ellman assay, Lineweaver-Burk analysis); type: biochemical; details: acetylthiocholine 0.05-50 mM; four expressing lines
Procedure: Scaled-down microtiter plate Ellman assays were performed, according to standard methods, which are well known in the art. […] At the end of the 30 minute incubation period, 100 μl of 1 mM 5-5′-dithio-bis(2-nitrobenzoate) (Ellman's reagent) and 2 mM acetylthiocholine in assay buffer was added. Hydrolysis was monitored by measuring optical density at 405 nm at 5 minute intervals for 30 minutes, using a microtiter plate spectrophotometer, plotted against time, and initial rates were calculated from the slope of the linear portion of the graph. Net hydrolysis rates were calculated by subtracting the rates measured in the presence of BW284c15 from those obtained in its absence. To determine the Km, the concentration of the acetylthiocholine substrate in the Ellman's reagent was varied in the range of 0.05-50 mM.

T1 sequence (P22303 32-617 isoform P22303-2 limits assumed): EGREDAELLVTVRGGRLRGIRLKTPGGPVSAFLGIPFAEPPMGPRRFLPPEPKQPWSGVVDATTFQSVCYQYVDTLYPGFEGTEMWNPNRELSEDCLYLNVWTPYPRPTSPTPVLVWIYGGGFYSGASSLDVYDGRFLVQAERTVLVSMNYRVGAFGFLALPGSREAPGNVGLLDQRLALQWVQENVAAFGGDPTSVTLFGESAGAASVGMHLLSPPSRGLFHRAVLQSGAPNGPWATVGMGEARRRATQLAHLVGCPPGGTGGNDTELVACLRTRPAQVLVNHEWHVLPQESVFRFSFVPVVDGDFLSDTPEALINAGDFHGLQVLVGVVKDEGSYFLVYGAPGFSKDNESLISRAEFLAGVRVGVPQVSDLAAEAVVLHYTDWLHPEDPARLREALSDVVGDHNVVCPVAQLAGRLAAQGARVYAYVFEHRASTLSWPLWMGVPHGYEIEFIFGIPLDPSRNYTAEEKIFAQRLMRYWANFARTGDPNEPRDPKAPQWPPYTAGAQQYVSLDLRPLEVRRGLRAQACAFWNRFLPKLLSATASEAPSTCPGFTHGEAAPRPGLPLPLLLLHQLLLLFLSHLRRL

CC(C)NP(=O)(NC(C)C)OP(=O)(NC(C)C)NC(C)C [Iso-OMPA, tetraisopropyl pyrophosphoramide]
inhibition of erythrocyte-derived enzyme ([1]; at 10 mM): only partial inhibition
effect on erythrocyte-derived enzyme ([1]; up to 100 μM): no effect
inhibition of plant-derived enzyme ([2]; at 10 mM): only partial inhibition
effect on plant-derived enzyme ([2]; up to 100 μM): no effect

O=S(=O)(F)Cc1ccccc1 [PMSF, phehylmethylsulfonyl fluoride]
inhibition of plant derived rAChE [2]: can inhibit

CN(C)C(=O)Oc1cccc([N+](C)(C)C)c1 [neostigmine]
inhibition of plant derived rAChE [2]: can inhibit

CCOP(=O)(OCC)Oc1ccc([N+](=O)[O-])cc1 [paraoxon, diethyl p-nitrophenyl phosphate]
susceptibility of plant-derived E4 enzyme relative to equivalent recombinant enzyme from transgenic mice [2]: somewhat less susceptible
inhibition of plant derived rAChE [2]: can inhibit

B1: plant-derived hAChE (protein, UniProt P22303 32-614, looked up)
Acetylcholinesterase: EGREDAELLVTVRGGRLRGIRLKTPGGPVSAFLGIPFAEPPMGPRRFLPPEPKQPWSGVVDATTFQSVCYQYVDTLYPGFEGTEMWNPNRELSEDCLYLNVWTPYPRPTSPTPVLVWIYGGGFYSGASSLDVYDGRFLVQAERTVLVSMNYRVGAFGFLALPGSREAPGNVGLLDQRLALQWVQENVAAFGGDPTSVTLFGESAGAASVGMHLLSPPSRGLFHRAVLQSGAPNGPWATVGMGEARRRATQLAHLVGCPPGGTGGNDTELVACLRTRPAQVLVNHEWHVLPQESVFRFSFVPVVDGDFLSDTPEALINAGDFHGLQVLVGVVKDEGSYFLVYGAPGFSKDNESLISRAEFLAGVRVGVPQVSDLAAEAVVLHYTDWLHPEDPARLREALSDVVGDHNVVCPVAQLAGRLAAQGARVYAYVFEHRASTLSWPLWMGVPHGYEIEFIFGIPLDPSRNYTAEEKIFAQRLMRYWANFARTGDPNEPRDPKAPQWPPYTAGAQQYVSLDLRPLEVRRGLRAQACAFWNRFLPKLLSATDTLDEAERQWKAEFHRWSSYMVHWKNQFDHYSKQDRCSDL
modifications: plant-expressed
loss of AChE activity ([3]; 4 degrees C., after 24 hours): 20%
initial activity retained ([3]; 42 degrees, at least 30 minutes, total soluble protein extract): 50%
residual AChE activity ([3]; room temperature (~25 degrees C.), after 25 hours): 20%
Km [4]: 440 ± 100 µM
